{"source": "patent US11260101B2", "about": "“Repair peptide for use in promoting post-traumatic tissue repair and regeneration, and application thereof” (Jinan University, priority 2017, dated 2022)", "key": {"[1]": {"test_system": "human umbilical vein endothelial cells (HUVEC)", "assay": "Proliferation-promoting effect on HUVEC, CCK-8 method", "type": "cell-based", "conditions": "24 hours treatment", "method": "3. Detection of the Proliferation-Promoting Effects of Repair Peptides R1, R2, R3 and R4, and the bFGF Respectively on Human Umbilical Vein Endothelial Cells (HUVEC) by Using the CCK-8 Method\n(§1) The HUVEC cells were plated in 96-well plates at 4000 cells per well. After the cells were adhered and then starved for 24 hours, the cells were treated for 24 hours with repair peptides R1, R2, R3 or R4, or the bFGF respectively at concentrations increased by 5 times. After that, the cells were treated with a CCK-8 reagent, and the OD value of each well was detected by an enzyme-labeled instrument."}, "[2]": {"test_system": "chick embryo chorioallantoic membrane", "assay": "Angiogenesis in chick embryo chorioallantoic membrane, R1-R4 at the same concentration", "type": "in vivo", "conditions": "100 μL at 100 ng/mL, three days culture", "method": "5. Detection of the Angiogenesis in the Chick Embryo Chorioallantoic Membrane Promoted by Repair Peptides R1, R2, R3 and R4\nA fertilized egg cultured for 5 days was placed with the bigger head of the egg up, then the eggshell was removed. 100 μL of repair peptides R1, R2, R3 and R4 at concentration of 100 ng/mL was respectively added drop-wise into the exposed chick embryo chorioallantoic membrane, and the opening was sealed with clean filter paper. A blank control group treated with PBS solution was set up. Further cultured for three days, then the chick embryo chorioallantoic membrane was peeled off, observed under a stereoscope and photographed, and the image was analyzed by using the software, ImageJ plus."}, "skin wound": {"test_system": "skin wound", "assay": "Skin wound healing after back incision", "type": "in vivo, Balb/c mice", "conditions": "10 μL drop-wise into 1-cm sutured incisions once a day", "method": "6. Detection of the Wound Healing in […] Skin Promoted by Repair Peptides R1, R2, R3 and R4\nBalb/c mice were anesthetized by intra-peritoneal injection with 1% pentobarbital sodium (100 mg/kg), and the back was depilated and disinfected using conventional sterilization methods with 1% iodophor and 75% alcohol. Both sides of the back were cut symmetrically leaving 1-cm incisions. The incisions were sutured with two needles in the sterilized surgery. Then 10 μL of repair peptides R1, R2, R3 and R4 are respectively added drop-wise into the wounds. The wounds were open with no cotton yarn covered. A blank control group treated with PBS solution was set up."}, "[3]": {"test_system": "mouse fibroblasts Balb/c 3T3", "assay": "Proliferation-promoting effect on fibroblasts Balb/c 3T3, CCK-8 method", "type": "cell-based", "conditions": "24 hours treatment", "method": "2. Detection of the Proliferation-Promoting Effects of Repair Peptides R1, R2, R3 and R4, and the bFGF Respectively on Fibroblasts Balb/c 3T3 by Using the CCK-8 Method\nas §1, with “The Ballb/c 3t3 cells were” for “The HUVEC cells were”, “hours with the repair peptides” for “hours with repair peptides”, “and the optical density (OD) value of” for “and the OD value of”"}, "[4]": {"test_system": "chick embryo chorioallantoic membrane", "assay": "Angiogenesis in chick embryo chorioallantoic membrane, R1 at increasing concentrations", "type": "in vivo", "conditions": "10 μL at concentrations increased by 25 times, three days culture", "method": "4. Angiogenesis in the Chick Embryo Chorioallantoic Membrane Promoted by the Repair Peptide R1\nA fertilized egg cultured for 5 days was placed with the bigger head of the egg up. The eggshell was removed, and a silica gel ring was placed in the middle of the exposed chick embryo chorioallantoic membrane. 10 μL of the repair peptide R1 at concentrations increased by 25 times was respectively added drop-wise into the silica gel ring, and the opening was sealed with clean filter paper. A blank control group treated with PBS solution was set up. Further cultured for three days, then the chick embryo chorioallantoic membrane was peeled off, observed under a stereoscope and photographed, and the image was analyzed by using the software, ImageJ plus."}, "FGFR2": {"target": "FGFR2 (Homo sapiens, UniProt P21802)", "sequence (P21802 22-821, species assumed)": "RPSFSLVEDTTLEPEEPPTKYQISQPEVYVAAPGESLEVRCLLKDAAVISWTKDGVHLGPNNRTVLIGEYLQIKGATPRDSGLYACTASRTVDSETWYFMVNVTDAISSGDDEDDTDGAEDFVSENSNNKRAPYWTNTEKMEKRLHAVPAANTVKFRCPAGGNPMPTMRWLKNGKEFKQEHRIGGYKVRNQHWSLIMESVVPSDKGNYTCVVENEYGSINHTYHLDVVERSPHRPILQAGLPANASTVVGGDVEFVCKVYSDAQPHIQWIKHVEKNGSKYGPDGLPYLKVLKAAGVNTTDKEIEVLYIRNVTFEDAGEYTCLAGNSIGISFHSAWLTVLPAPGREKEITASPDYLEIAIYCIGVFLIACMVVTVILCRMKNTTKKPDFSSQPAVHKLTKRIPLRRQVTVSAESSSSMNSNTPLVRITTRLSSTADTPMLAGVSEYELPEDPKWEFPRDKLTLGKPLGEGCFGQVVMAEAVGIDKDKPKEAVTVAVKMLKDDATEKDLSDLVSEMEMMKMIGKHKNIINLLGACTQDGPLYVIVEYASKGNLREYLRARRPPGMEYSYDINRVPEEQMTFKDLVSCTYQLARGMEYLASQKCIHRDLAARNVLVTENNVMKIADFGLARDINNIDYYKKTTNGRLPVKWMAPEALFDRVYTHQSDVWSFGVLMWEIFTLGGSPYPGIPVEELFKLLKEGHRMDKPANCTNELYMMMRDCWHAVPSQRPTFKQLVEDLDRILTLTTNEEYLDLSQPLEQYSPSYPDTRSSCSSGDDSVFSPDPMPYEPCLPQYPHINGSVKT", "assay": "Affinity to FGFR2 by isothermal titration calorimetry (ITC)", "type": "binding", "conditions": "for Kd: read-out: dissociation constant Kd with FGFR2", "source_text": "1. Detection of the Affinity Between the Repair Peptide R1 and FGFR2 by Using the ITC Method\n(The K denoted the affinity constant, and the Kd denoted the dissociation constant. The larger the K was and the smaller the Kd was, the stronger the affinity was)."}, "[5]": {"conditions": "lower concentration groups (≤0.16 μM)"}}, "note": "Positions of bridges follow the written chain, without caps; N, C: chain ends. No end group written: not given here.", "data": [{"substance": "CGPANVETC (disulfide 1-9 (inferred)) [R4]", "values": [{"measurement": "proliferation-promoting activity on HUVEC (OD, CCK-8)", "setting": "[1]; higher concentration groups", "result": "still had a proliferation-promoting activity"}, {"measurement": "proliferation-promoting activity on HUVEC (OD, CCK-8)", "setting": "[1]; [5]", "result": "comparable proliferation-promoting activity"}, {"measurement": "capillaries in the chick embryo chorioallantoic membrane", "setting": "[2]", "result": "significantly increased"}, {"measurement": "skin wound healing", "setting": "skin wound", "result": "the healing was sped up"}, {"measurement": "proliferation-promoting activity on Balb/c 3T3 (OD, CCK-8)", "setting": "[3]; higher concentration groups", "result": "still had a proliferation-promoting activity"}, {"measurement": "proliferation-promoting activity on Balb/c 3T3 (OD, CCK-8)", "setting": "[3]; lower concentration groups", "result": "comparable proliferation-promoting activity"}]}, {"substance": "GPANVEKEKEK (R3)", "values": [{"measurement": "proliferation-promoting activity on HUVEC (OD, CCK-8)", "setting": "[1]; higher concentration groups", "result": "still had a proliferation-promoting activity"}, {"measurement": "proliferation-promoting activity on HUVEC (OD, CCK-8)", "setting": "[1]; [5]", "result": "comparable proliferation-promoting activity"}, {"measurement": "capillaries in the chick embryo chorioallantoic membrane", "setting": "[2]", "result": "significantly increased"}, {"measurement": "skin wound healing", "setting": "skin wound", "result": "the healing was sped up"}, {"measurement": "proliferation-promoting activity on Balb/c 3T3 (OD, CCK-8)", "setting": "[3]; higher concentration groups", "result": "still had a proliferation-promoting activity"}, {"measurement": "proliferation-promoting activity on Balb/c 3T3 (OD, CCK-8)", "setting": "[3]; lower concentration groups", "result": "comparable proliferation-promoting activity"}]}, {"substance": "GPANVET [R1, GPANVET]", "values": [{"measurement": "capillaries in the chick embryo chorioallantoic membrane", "setting": "[4]", "result": "significantly increased with the increasing dose"}, {"measurement": "proliferation-promoting activity on HUVEC (OD, CCK-8)", "setting": "[1]; higher concentration groups", "result": "still had a proliferation-promoting activity"}, {"measurement": "proliferation-promoting activity on HUVEC (OD, CCK-8)", "setting": "[1]; [5]", "result": "comparable proliferation-promoting activity"}, {"measurement": "capillaries in the chick embryo chorioallantoic membrane", "setting": "[2]", "result": "significantly increased"}, {"measurement": "skin wound healing", "setting": "skin wound", "result": "the healing was sped up"}, {"measurement": "proliferation-promoting activity on Balb/c 3T3 (OD, CCK-8)", "setting": "[3]; higher concentration groups", "result": "still had a proliferation-promoting activity"}, {"measurement": "proliferation-promoting activity on Balb/c 3T3 (OD, CCK-8)", "setting": "[3]; lower concentration groups", "result": "comparable proliferation-promoting activity"}, {"measurement": "affinity constant K with FGFR2", "setting": "FGFR2", "result": "7.35e+08 ± 2.1e+08", "unit": "M⁻¹"}, {"measurement": "affinity to FGFR2 relative to that of bFGF", "setting": "FGFR2; R1-FGFR2 versus bFGF-FGFR2", "result": "about 4,500 times"}, {"measurement": "Kd", "setting": "FGFR2", "result": "~0.00137", "unit": "µM"}]}, {"substance": "KVKVGPANVKVKV (R2)", "values": [{"measurement": "proliferation-promoting activity on HUVEC (OD, CCK-8)", "setting": "[1]; higher concentration groups", "result": "still had a proliferation-promoting activity"}, {"measurement": "proliferation-promoting activity on HUVEC (OD, CCK-8)", "setting": "[1]; [5]", "result": "comparable proliferation-promoting activity"}, {"measurement": "capillaries in the chick embryo chorioallantoic membrane", "setting": "[2]", "result": "significantly increased"}, {"measurement": "skin wound healing", "setting": "skin wound", "result": "the healing was sped up"}, {"measurement": "proliferation-promoting activity on Balb/c 3T3 (OD, CCK-8)", "setting": "[3]; higher concentration groups", "result": "still had a proliferation-promoting activity"}, {"measurement": "proliferation-promoting activity on Balb/c 3T3 (OD, CCK-8)", "setting": "[3]; lower concentration groups", "result": "comparable proliferation-promoting activity"}]}, {"substance": "bFGF: recombinant basic Fibroblast Growth Factor (155 amino acids), clinically applied to wounds and burns", "values": [{"measurement": "proliferation-promoting activity on HUVEC (OD, CCK-8)", "setting": "[1]; higher concentration groups", "result": "cell proliferation was inhibited"}, {"measurement": "proliferation-promoting activity on HUVEC (OD, CCK-8)", "setting": "[1]; [5]", "result": "comparable proliferation-promoting activity"}, {"measurement": "proliferation-promoting activity on Balb/c 3T3 (OD, CCK-8)", "setting": "[3]; higher concentration groups", "result": "cell proliferation was inhibited"}, {"measurement": "proliferation-promoting activity on Balb/c 3T3 (OD, CCK-8)", "setting": "[3]; lower concentration groups", "result": "comparable proliferation-promoting activity"}, {"measurement": "affinity constant K with FGFR2", "setting": "FGFR2", "result": "162000 ± 25000", "unit": "M⁻¹"}, {"measurement": "Kd", "setting": "FGFR2", "result": "~6.17", "unit": "µM"}]}]}
